Results from the supplement of paper PMC13380429.
Counter-ions that a name gives are not always drawn.

How the values were obtained:
Settings in all cases: 72 h
U2OS [1] = assay: cell viability relative to DMSO; higher = less toxic
Calu-3 [2] = assay: as above
Caco-2 [3] = assay: as above
Vero E6 [4] = assay: as above
HepG2 [5] = assay: as above
U2OS [6] = assay: drug sensitivity score (DSS) for viability; higher = more toxic; extreme values may be limits of the assay
Calu-3 [7] = assay: as above
Caco-2 [8] = assay: as above
Vero E6 [9] = assay: as above
HepG2 [10] = assay: as above
U2OS [11] = assay: relative viability EC50 (midpoint between 100% and the lowest measured viability); higher = less toxic
Calu-3 [12] = assay: as above
Caco-2 [13] = assay: as above
Vero E6 [14] = assay: as above
HepG2 [15] = assay: as above

SMILES | cell viability (U2OS [1]; 1 nM) [%] | cell viability (U2OS [1]; 10 nM) [%] | cell viability (U2OS [1]; 100 nM) [%] | cell viability (U2OS [1]; 1000 nM) [%] | cell viability (U2OS [1]; 10000 nM) [%] | cell viability (Calu-3 [2]; 1 nM) [%] | cell viability (Calu-3 [2]; 10 nM) [%] | cell viability (Calu-3 [2]; 100 nM) [%] | cell viability (Calu-3 [2]; 1000 nM) [%] | cell viability (Calu-3 [2]; 10000 nM) [%] | cell viability (Caco-2 [3]; 1 nM) [%] | cell viability (Caco-2 [3]; 10 nM) [%] | cell viability (Caco-2 [3]; 100 nM) [%] | cell viability (Caco-2 [3]; 1000 nM) [%] | cell viability (Caco-2 [3]; 10000 nM) [%] | cell viability (Vero E6 [4]; 1 nM) [%] | cell viability (Vero E6 [4]; 10 nM) [%] | cell viability (Vero E6 [4]; 100 nM) [%] | cell viability (Vero E6 [4]; 1000 nM) [%] | cell viability (Vero E6 [4]; 10000 nM) [%] | cell viability (HepG2 [5]; 1 nM) [%] | cell viability (HepG2 [5]; 10 nM) [%] | cell viability (HepG2 [5]; 100 nM) [%] | cell viability (HepG2 [5]; 1000 nM) [%] | cell viability (HepG2 [5]; 10000 nM) [%] | drug sensitivity score (U2OS [6]) | drug sensitivity score (Calu-3 [7]) | drug sensitivity score (Caco-2 [8]) | drug sensitivity score (Vero E6 [9]) | drug sensitivity score (HepG2 [10]) | relative viability EC50 (U2OS [11]) [µM] | relative viability EC50 (Calu-3 [12]) [µM] | relative viability EC50 (Caco-2 [13]) [µM] | relative viability EC50 (Vero E6 [14]) [µM] | relative viability EC50 (HepG2 [15]) [µM]
Cc1cc2nc3c(=O)[nH]c(=O)nc-3n(C)c2cc1C=O [Ro-08-2750] | 94.4 | 99.2 | 94.1 | 97.8 | 5.6 | 104 | 103 | 96 | 102 | 81.9 | 92.4 | 90 | 96.4 | 90.2 | 40 | 96.6 | 94.3 | 97.6 | 92.5 | 101 | 109 | 105 | 100 | 109 | 37.1 | 5.5 | 0.4 | 4.9 | 0 | 2.9 | 3 | > 10 | 1.91 | > 10 | 3.78
CCCCc1nc2cc(/C=C/C(=O)NO)ccc2n1CCN(CC)CC [SB-939] | 101 | 105 | 83.9 | 27.9 | 1.1 | 95.4 | 89.6 | 65.5 | 30.7 | 7.8 | 98 | 97.4 | 98 | 37.6 | 0.6 | 107 | 99.1 | 95.5 | 13.4 | -0.1 | 99.3 | 109 | 89 | 15.7 | 0 | 15.5 | 17.6 | 12.9 | 16.3 | 16.8 | 0.425 | 0.195 | 0.766 | 0.417 | 0.362
Nc1nc2c(ccc3ccccc32)s1 [SKA-31] | 100 | 103 | 101 | 102 | 98.9 | 98.3 | 103 | 101 | 103 | 96.7 | 99.6 | 104 | 97.5 | 106 | 93.9 | 102 | 100 | 103 | 100 | 97.8 | 118 | 109 | 114 | 110 | 99.1 | 0 | 0 | 0 | 0 | 0 | > 10 | > 10 | > 10 | > 10 | > 10
CC1CCN(C(c2ccc(F)cc2)c2ccc(C(C)C(=O)O)cc2-c2ccc(C(F)(F)F)cc2)CC1 (stereo not given) [TC-E-5006] | 102 | 97.9 | 101 | 96.5 | 93.2 | 104 | 92.3 | 94.9 | 96.2 | 103 | 105 | 99.5 | 96.2 | 89 | 90.1 | 97.4 | 104 | 95.4 | 99.2 | 100 | 97.5 | 103 | 99 | 101 | 81.6 | 0 | 0 | 0.3 | 0 | 0.4 | > 10 | > 10 | > 10 | > 10 | > 10
COc1cccc(C2(O)CCCCC2CN(C)C)c1 (stereo not given) [TRAMADOL HYDROCHLORIDE] | 103 | 105 | 97.5 | 99.3 | 99.9 | 106 | 98.2 | 115 | 101 | 96.2 | 93.9 | 100 | 96.2 | 95.2 | 98.3 | 101 | 103 | 101 | 97.4 | 101 | 93.5 | 96.8 | 97.4 | 89.8 | 106 | 0 | 0 | 0 | 0 | 0 | > 10 | > 10 | > 10 | > 10 | > 10
Nc1cccc(-c2cc3c(Oc4cccc(O)c4)ncnc3[nH]2)c1 [TWS-119] | 103 | 108 | 102 | 96.6 | 25.2 | 108 | 97.8 | 86.2 | 96.4 | 25.7 | 99.3 | 99.4 | 98.2 | 89.5 | 40.4 | 110 | 101 | 101 | 82.2 | 24.9 | 113 | 107 | 128 | 104 | 90.1 | 4.6 | 4.6 | 5 | 7 | 0 | 2.82 | 2.79 | 1.85 | 1.59 | > 10
N#C/C(=C\c1cn(-c2ccccc2)c2ccccc12)C(=O)O [UK-5099] | 98.5 | 98.8 | 95.4 | 103 | 106 | 106 | 90.1 | 106 | 93.1 | 106 | 98.1 | 106 | 100 | 94 | 104 | 98.1 | 102 | 99.7 | 99.8 | 101 | 105 | 101 | 101 | 97 | 95.7 | 0 | 0 | 0 | 0 | 0 | > 10 | > 10 | > 10 | > 10 | > 10
CCC(=O)Nc1cccc(Oc2nc(Nc3ccc(N4CCN(C)CC4)cc3OC)ncc2Cl)c1 [WZ4003] | 97.3 | 103 | 103 | 105 | 102 | 97 | 97.7 | 94.8 | 96.3 | 82.5 | 99.3 | 105 | 102 | 99.5 | 89.3 | 101 | 100 | 102 | 96.2 | 98.6 | 100 | 94.3 | 102 | 90.9 | 104 | 0 | 0.7 | 0 | 0 | 0 | > 10 | > 10 | > 10 | > 10 | > 10
